Measured values: ChEMBL document CHEMBL5674873, “Expression and inhibition of BRD4, EZH2 and TOP2A in neurofibromas and malignant peripheral nerve sheath tumors” (PLoS One, 2017)

Assays:
Format in all cases: cell-based
[1] = target: T1, Bromodomain-containing protein 4 (Homo sapiens, UniProt O60885); test: Inhibition of BRD4 in human ST88-14 cells assessed as reduction in cell viability at 4.9 to 2500 nM incubated for 72 hrs by SRB assay
[2] = target: T1, Bromodomain-containing protein 4; test: Inhibition of BRD4 in human HS53T cells assessed as reduction in cell viability at 4.9 to 2500 nM incubated for 72 hrs by SRB assay
[3] = target: T1, Bromodomain-containing protein 4; conditions: sts-26t
Description: Inhibition of BRD4 in human STS-26T cells assessed as reduction in cell viability at 4.9 to 2500 nM incubated for 72 hrs by SRB assay

[4] = target: DNA topoisomerase 2-alpha (Homo sapiens, UniProt P11388); test: Inhibition of TOP2A in human HS53T cells assessed as reduction in cell viability at 1 to 500 ng/ml incubated for 72 hrs by SRB assay
Chain of DNA topoisomerase 2-alpha (P11388 whole entry): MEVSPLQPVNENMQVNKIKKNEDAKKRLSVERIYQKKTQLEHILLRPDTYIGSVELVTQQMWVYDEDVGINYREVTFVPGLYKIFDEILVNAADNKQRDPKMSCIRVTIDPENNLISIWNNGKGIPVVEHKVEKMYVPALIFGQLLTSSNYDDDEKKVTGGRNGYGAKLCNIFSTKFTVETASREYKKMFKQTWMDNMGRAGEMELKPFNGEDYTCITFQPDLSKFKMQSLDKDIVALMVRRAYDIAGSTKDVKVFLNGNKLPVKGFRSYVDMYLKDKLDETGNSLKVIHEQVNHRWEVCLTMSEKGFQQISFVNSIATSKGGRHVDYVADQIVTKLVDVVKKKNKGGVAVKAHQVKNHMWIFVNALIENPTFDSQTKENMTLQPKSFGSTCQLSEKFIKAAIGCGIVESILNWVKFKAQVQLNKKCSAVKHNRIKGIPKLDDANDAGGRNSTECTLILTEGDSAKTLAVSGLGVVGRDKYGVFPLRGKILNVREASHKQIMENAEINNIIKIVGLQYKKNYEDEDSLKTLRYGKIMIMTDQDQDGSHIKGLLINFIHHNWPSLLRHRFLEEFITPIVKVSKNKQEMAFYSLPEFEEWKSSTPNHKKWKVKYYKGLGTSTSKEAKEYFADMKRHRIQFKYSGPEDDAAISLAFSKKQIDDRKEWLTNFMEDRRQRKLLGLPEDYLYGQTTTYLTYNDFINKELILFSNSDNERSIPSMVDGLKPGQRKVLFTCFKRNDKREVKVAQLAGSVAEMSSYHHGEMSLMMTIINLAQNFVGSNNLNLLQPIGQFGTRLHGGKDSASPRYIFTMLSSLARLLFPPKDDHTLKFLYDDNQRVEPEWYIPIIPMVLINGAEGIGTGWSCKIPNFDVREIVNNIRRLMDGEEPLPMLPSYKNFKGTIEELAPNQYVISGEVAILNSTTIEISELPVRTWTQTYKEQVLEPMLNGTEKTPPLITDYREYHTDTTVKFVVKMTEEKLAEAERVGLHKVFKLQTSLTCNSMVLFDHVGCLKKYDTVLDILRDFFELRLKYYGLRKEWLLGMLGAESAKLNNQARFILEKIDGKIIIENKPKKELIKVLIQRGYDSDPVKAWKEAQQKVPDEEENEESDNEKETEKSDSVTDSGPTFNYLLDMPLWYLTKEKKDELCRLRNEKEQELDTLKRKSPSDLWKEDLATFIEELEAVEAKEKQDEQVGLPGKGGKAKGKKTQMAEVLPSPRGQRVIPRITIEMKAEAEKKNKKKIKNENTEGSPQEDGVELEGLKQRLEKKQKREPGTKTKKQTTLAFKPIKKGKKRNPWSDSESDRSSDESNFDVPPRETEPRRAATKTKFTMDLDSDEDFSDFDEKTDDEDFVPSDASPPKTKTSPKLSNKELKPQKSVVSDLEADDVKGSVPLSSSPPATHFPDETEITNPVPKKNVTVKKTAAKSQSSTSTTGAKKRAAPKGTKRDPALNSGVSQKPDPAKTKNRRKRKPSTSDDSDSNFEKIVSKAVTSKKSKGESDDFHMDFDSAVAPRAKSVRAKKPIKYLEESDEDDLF

Cc1sc2c(c1C)C(c1ccc(Cl)cc1)=N[C@@H](CC(=O)OC(C)(C)C)c1nnc(C)n1-2
IC50 [1]: Not Active
IC50 [2]: Not Active
IC50 [3]: Not Active

COc1cccc2c1C(=O)c1c(O)c3c(c(O)c1C2=O)C[C@@](O)(C(=O)CO)C[C@@H]3O[C@H]1C[C@H](N)[C@H](O)[C@H](C)O1 [DOXORUBICIN]
IC50 [4]: Not Active
